Measured values: PubChem BioAssay AID720737 (The Scripps Research Institute Molecular Screening Center, 2013)
Calls of active or inactive are those of the source.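 How the source made its calls: active means compounds whose fitted concentration for half of maximal LXR reporter activation EC50 is 10 µM or lower; inactive means the rest.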

System: HEK293 Gal4-LXR tk-luc reporter, luminescence, 24 h
Experiment: LXR agonists, Gal4 luciferase reporter, dose response, counter-screen for ssDAF-12 agonist project, cell-based, luminescence, HEK293, S. stercoralis campaign (AID 720737)

SMILES: CC(C)(C)C1CCC(=NNC(=S)Nc2cccnc2)CC1 (stereo unspecified)
- EC50: > 67.5 µM (inactive)
